These results are taken from patent US20250163104A1, “MACROCYCLIC IMMUNOMODULATORS” (priority 2021, published 2025).

Read-outs that look alike come from different tables or passages of the source. Where a SMILES comes first, the peptide text is derived from it. Bridges are numbered along the chain shown (N, C = ends). [ ]: non-standard residue; d: D form. The star is where a group is joined. ξ: configuration not given here. Phe(4-COOH) = N[C@@H](Cc1ccc(C(=O)O)cc1)C(=O)O; Bip = N[C@@H](Cc1ccc(-c2ccccc2)cc1)C(=O)O; Phe(3-Me) = Cc1cccc(C[C@H](N)C(=O)O)c1; Val(3-OH) = CC(C)(O)[C@H](N)C(=O)O; 4Pal = N[C@@H](Cc1ccncc1)C(=O)O; 3Thi = N[C@@H](Cc1ccsc1)C(=O)O; Cha = N[C@@H](CC1CCCCC1)C(=O)O; Cit = NC(=O)NCCC[C@H](N)C(=O)O; Ile(3ξ) = CCC(C)[C@H](N)C(=O)O; dCha = N[C@H](CC1CCCCC1)C(=O)O; Thr(3ξ) = CC(O)[C@H](N)C(=O)O; Carboxymethyl = O=C(O)C*; Orn = NCCC[C@H](N)C(=O)O; Pra = C#CC[C@H](N)C(=O)O; Dab = NCC[C@H](N)C(=O)O; Nva = CCC[C@H](N)C(=O)O; Dap = NC[C@H](N)C(=O)O; X2 = Cc1cnc(CN*)cn1

The target in the experiment is T1, human PD-1 / PD-L1-Ig binding on Jurkat cell line over-expressing human PD-1 (Jurkat-PD-1) (Homo sapiens, UniProt Q15116).
T1 construct: expressed in transfected cells; host or cells: Jurkat
Nature of the experiment: Jurkat-PD-1 Cell Binding High-Content Screening Assay (CBA). Conditions: PE-labeled PD-L1-Ig 20 nM final. In kind it is cell-based. In outline: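 Compounds were preincubated with Jurkat-hPD-1 cells in DMEM plus 10% fetal calf serum for 2 h at 37° C. Phycoerythrin-labeled PD-L1-Ig (20 nM final) was then added for 1 hour. Cells were fixed in 4% paraformaldehyde with Hoechst 33342, and bound fluorescence was quantified by high-content imaging.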

The mark [1] stands for this setting: Jurkat-PD-1 cells, read-out: Jurkat HPD1_PDL1 IC50.
Setting [2] is: Jurkat HPD1_PDL1 IC50, Jurkat-PD-1 cells.

T1 sequence (Q15116 25-288): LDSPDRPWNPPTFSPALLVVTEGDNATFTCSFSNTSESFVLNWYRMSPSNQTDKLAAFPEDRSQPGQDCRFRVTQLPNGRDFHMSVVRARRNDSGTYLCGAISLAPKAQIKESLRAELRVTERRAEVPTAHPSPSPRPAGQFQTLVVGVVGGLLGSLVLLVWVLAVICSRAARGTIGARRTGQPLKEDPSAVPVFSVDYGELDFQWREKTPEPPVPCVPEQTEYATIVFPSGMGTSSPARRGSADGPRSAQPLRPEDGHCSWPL

As to `C#CC[C@H](NC(=O)[C@H](CCN)NC(=O)[C@@H]1CSCC(=O)N[C@@H](Cc2ccncc2)C(=O)N[C@@H](Cc2ccc(OCC(=O)O)cc2)C(=O)N[C@@H](CC(=O)O)C(=O)N[C@@H](Cc2cccc(C)c2)C(=O)N[C@@H](Cc2ccc(OCC(=O)O)cc2)C(=O)N[C@@H](Cc2ccc(-c3ccccc3)cc2)C(=O)N[C@@H](Cc2ccc(OCC(=O)O)cc2)C(=O)N[C@@H](CCCN)C(=O)N[C@H](CC(C)C)C(=O)N[C@@H](CCN)C(=O)N[C@@H](CC2CCCCC2)C(=O)N[C@@H](C(C)(C)O)C(=O)N[C@@H](CO)C(=O)N1)C(=O)O` [Compound 2317] ({CH2CO}-[4Pal]Y(Carboxymethyl)D[Phe(3-Me)]Y(Carboxymethyl)[Bip]Y(Carboxymethyl)[Orn][dL][Dab][Cha][Val(3-OH)]SC[Dab][Pra]-OH; thioether N-14), the IC50 (usually the concentration at which inhibition is half-maximal) under setting [1] came to 576 nM. Take `CC[C@H](C)[C@@H]1NC(=O)[C@H](Cc2ccc(-c3ccccc3)cc2)NC(=O)[C@H](C(C)C)NC(=O)[C@H](Cc2c[nH]c3ccccc23)NC(=O)[C@H](CC(=O)O)NC(=O)[C@H](Cc2ccncc2)NC(=O)[C@H](Cc2ccc(OCC(=O)O)cc2)NC(=O)CSC[C@@H](C(=O)N[C@@H](C)C(N)=O)NC(=O)[C@H]([C@@H](C)O)NC(=O)[C@H](C(C)C)NC(=O)[C@H](CC2CCCCC2)NC(=O)[C@H](Cc2c[nH]cn2)NC(=O)[C@@H](CC(C)C)NC(=O)[C@H](CCCN)NC1=O` [Compound 1604]: the IC50 under setting [2] came out at 45.8 nM. As for `CCC(C)[C@@H]1NC(=O)[C@H](Cc2ccc(-c3ccccc3)cc2)NC(=O)[C@H](Cc2c[nH]cn2)NC(=O)[C@H](Cc2c[nH]c3ccccc23)NC(=O)[C@H](CC(=O)O)NC(=O)[C@H](Cc2ccc(OCC(=O)O)cc2)NC(=O)[C@H](C(C)O)NC(=O)CSC[C@@H](C(=O)N[C@@H](CC(N)=O)C(=O)O)NC(=O)[C@H](CO)NC(=O)[C@H](C(C)C)NC(=O)[C@H](CC(C)C)NC(=O)[C@H](CCN)NC(=O)[C@@H](CC(C)C)NC(=O)[C@H](CCCN)NC1=O` (stereo partly drawn) [Compound 2580] ({CH2CO}-[Thr(3ξ)]Y(Carboxymethyl)DWH[Bip][Ile(3ξ)][Orn][dL][Dab]LVSCN-OH; thioether N-14), the IC50 (read-out: Jurkat HPD1_PDL1 IC50, Jurkat-PD-1 cells) was found to be 45 nM. As for `CC(C)[C@@H]1NC(=O)[C@H](Cc2c[nH]c3ccccc23)NC(=O)[C@H](CC(=O)O)NC(=O)[C@H](Cc2ccc(O)cc2)NC(=O)[C@H](CC(N)=O)NC(=O)CSC[C@@H](C(=O)N[C@@H](C)C(N)=O)NC(=O)[C@H]([C@@H](C)O)NC(=O)[C@H](C(C)C)NC(=O)[C@H](CC2CCCCC2)NC(=O)[C@H](CCN)NC(=O)[C@@H](CC2CCCCC2)NC(=O)[C@H](CCCN)NC(=O)[C@H](C(C)C)NC(=O)[C@H](Cc2ccc(-c3ccccc3)cc2)NC1=O` [Compound 1639] ({CH2CO}-NYDWV[Bip]V[Orn][dCha][Dab][Cha]VTCA-NH2; thioether N-14), the IC50 under setting [1] turned out to be 35.8 nM.

In the case of `Cc1cccc(C[C@@H]2NC(=O)[C@H](CC(=O)O)NC(=O)[C@H](Cc3ccc(C(=O)O)cc3)NC(=O)[C@H](C(C)O)NC(=O)CSC[C@@H](C(=O)N[C@@H](CCN)C(N)=O)NC(=O)[C@H](Cc3cnc[nH]3)NC(=O)[C@H](C(C)(C)O)NC(=O)[C@H](CC3CCCCC3)NC(=O)[C@H](CCN)NC(=O)[C@@H](CC(C)C)NC(=O)[C@H](CCCN)NC(=O)[C@H](Cc3ccc(OCC(=O)O)cc3)NC(=O)[C@H](Cc3ccc(-c4ccccc4)cc3)NC(=O)[C@H](Cc3ccc(OCC(=O)O)cc3)NC2=O)c1` (stereo partly drawn) [Compound 2683] ({CH2CO}-[Thr(3ξ)][Phe(4-COOH)]D[Phe(3-Me)]Y(Carboxymethyl)[Bip]Y(Carboxymethyl)[Orn][dL][Dab][Cha][Val(3-OH)]HC[Dab]-NH2; thioether N-14), the IC50 under setting [1] is 1.9 nM. Still for that read-out and setting: next, `Cc1cccc(C[C@@H]2NC(=O)[C@H](CC(=O)O)NC(=O)[C@H](Cc3ccc(C(=O)O)cc3)NC(=O)[C@H](C(C)O)NC(=O)CSC[C@@H](C(=O)N[C@@H](CCN)C(N)=O)NC(=O)[C@H](CO)NC(=O)[C@H](C(C)(C)O)NC(=O)[C@H](CC3CCCCC3)NC(=O)[C@H](CCN)NC(=O)[C@@H](CC(C)C)NC(=O)[C@H](CCCN)NC(=O)[C@H](Cc3ccc(OCC(=O)O)cc3)NC(=O)[C@H](Cc3ccc(-c4ccccc4)cc3)NC(=O)[C@H](Cc3ccc(C(=O)O)cc3)NC2=O)c1` (stereo partly drawn) [Compound 2635] ({CH2CO}-[Thr(3ξ)][Phe(4-COOH)]D[Phe(3-Me)][Phe(4-COOH)][Bip]Y(Carboxymethyl)[Orn][dL][Dab][Cha][Val(3-OH)]SC[Dab]-NH2; thioether N-14): 4.5 nM; `CC(C)C[C@@H]1NC(=O)[C@H](Cc2c[nH]c3ccccc23)NC(=O)[C@H](CC(=O)O)NC(=O)[C@H](Cc2ccc(O)cc2)NC(=O)[C@H](Cc2ccccc2)NC(=O)CSC[C@@H](C(=O)N[C@@H](C)C(N)=O)NC(=O)[C@H](CO)NC(=O)[C@H](C(C)C)NC(=O)[C@H](CC(C)C)NC(=O)[C@H](CC(N)=O)NC(=O)[C@@H](CC(C)C)NC(=O)[C@H](CN)NC(=O)[C@H](CCC(=O)O)NC(=O)[C@H](Cc2ccc(-c3ccccc3)cc2)NC1=O` [Compound 1226] ({CH2CO}-FYDWL[Bip]E[Dap][dL]NLVSCA-NH2; thioether N-14): 32.2 nM; `C#CC[C@H](NC(=O)[C@H](CCN)NC(=O)[C@@H]1CSCC(=O)N[C@@H](CN)C(=O)N[C@@H](Cc2ccc(OCC(=O)O)cc2)C(=O)N[C@@H](CC(=O)O)C(=O)N[C@@H](Cc2cccc(C)c2)C(=O)N[C@@H](Cc2ccc(C(=O)O)cc2)C(=O)N[C@@H](Cc2ccc(-c3ccccc3)cc2)C(=O)N[C@@H](Cc2ccc(C(=O)O)cc2)C(=O)N[C@@H](CCCN)C(=O)N[C@H](CC(C)C)C(=O)N[C@@H](CCN)C(=O)N[C@@H](CC2CCCCC2)C(=O)N[C@@H](C(C)C)C(=O)N[C@@H](CCC(=O)O)C(=O)N1)C(=O)O` [Compound 1825] ({CH2CO}-[Dap]Y(Carboxymethyl)D[Phe(3-Me)][Phe(4-COOH)][Bip][Phe(4-COOH)][Orn][dL][Dab][Cha]VEC[Dab][Pra]-OH; thioether N-14): 182 nM. With `CC(C)C[C@H]1NC(=O)[C@H](CCCN)NC(=O)[C@H](CCCNC(N)=O)NC(=O)[C@H](Cc2ccc(-c3ccccc3)cc2)NC(=O)[C@H](C(C)C)NC(=O)[C@H](Cc2c[nH]c3ccccc23)NC(=O)[C@H](CC(=O)O)NC(=O)[C@H](Cc2ccc(OCC(=O)O)cc2)NC(=O)[C@H](Cc2ccc(OCC(=O)O)cc2)NC(=O)CSC[C@@H](C(=O)N[C@@H](C)C(N)=O)NC(=O)[C@H]([C@@H](C)O)NC(=O)[C@H](C(C)C)NC(=O)[C@H](CC2CCCCC2)NC(=O)[C@H](Cc2c[nH]cn2)NC1=O` [Compound 1594], the IC50 under setting [2] was 19.4 nM. For the molecule `CC(C)C[C@H]1NC(=O)[C@H](CCN)NC(=O)[C@H](C(C)C)NC(=O)[C@H](Cc2ccc(-c3ccccc3)cc2)NC(=O)[C@H](C(C)C)NC(=O)[C@H](Cc2c[nH]c3ccccc23)NC(=O)[C@H](CC(=O)O)NC(=O)[C@H](Cc2ccc(OCC(=O)O)cc2)NC(=O)[C@H](Cc2ccsc2)NC(=O)CSC[C@@H](C(=O)N[C@H](CC(N)=O)C(N)=O)NC(=O)[C@H](CCCCN)NC(=O)[C@H](C(C)C)NC(=O)[C@H](CC2CCCCC2)NC(=O)[C@H](CCN)NC1=O` [Compound 2612] ({CH2CO}-[3Thi]Y(Carboxymethyl)DWV[Bip]V[Dab][dL][Dab][Cha]VKC[dN]-NH2; thioether N-14), under setting [1], the IC50 was 5.9 nM. On the same count and under the same terms, next, `C#CC[C@H](NC(=O)[C@H](CCN)NC(=O)[C@@H]1CSCC(=O)N[C@@H](CCCN)C(=O)N[C@@H](Cc2ccc(OCC(=O)O)cc2)C(=O)N[C@@H](CC(=O)O)C(=O)N[C@@H](Cc2cccc(C)c2)C(=O)N[C@@H](Cc2ccc(OCC(=O)O)cc2)C(=O)N[C@@H](Cc2ccc(-c3ccccc3)cc2)C(=O)N[C@@H](Cc2ccc(OCC(=O)O)cc2)C(=O)N[C@@H](CCCN)C(=O)N[C@H](CC(C)C)C(=O)N[C@@H](CCN)C(=O)N[C@@H](CC2CCCCC2)C(=O)N[C@@H](C(C)C)C(=O)N[C@@H](CO)C(=O)N1)C(N)=O` [Compound 1855] ({CH2CO}-[Orn]Y(Carboxymethyl)D[Phe(3-Me)]Y(Carboxymethyl)[Bip]Y(Carboxymethyl)[Orn][dL][Dab][Cha]VSC[Dab][Pra]-NH2; thioether N-14): 6.8 nM; `Cc1cccc(C[C@@H]2NC(=O)[C@H](CC(=O)O)NC(=O)[C@H](Cc3ccc(OCC(=O)O)cc3)NC(=O)[C@H](CN)NC(=O)CSC[C@@H](C(=O)N[C@@H](C)C(=O)NCc3cnc(C)cn3)NC(=O)[C@H](CN)NC(=O)[C@H](C(C)C)NC(=O)[C@H](CC3CCCCC3)NC(=O)[C@H](CCN)NC(=O)[C@@H](CC(C)C)NC(=O)[C@H](CCCN)NC(=O)[C@H](CCCNC(N)=O)NC(=O)[C@H](Cc3ccc(-c4ccccc4)cc3)NC(=O)[C@H](C(C)C)NC2=O)c1` [Compound 2019] ({CH2CO}-[Dap]Y(Carboxymethyl)D[Phe(3-Me)]V[Bip][Cit][Orn][dL][Dab][Cha]V[Dap]CA-X2; thioether N-14): 12.8 nM. As for `C#CC[C@H](NC(=O)[C@@H]1CSCC(=O)N[C@@H](CCC)C(=O)N[C@@H](Cc2ccc(OCC(=O)O)cc2)C(=O)N[C@@H](CC(=O)O)C(=O)N[C@@H](Cc2cccc(C)c2)C(=O)N[C@@H](Cc2ccc(OCC(=O)O)cc2)C(=O)N[C@@H](Cc2ccc(-c3ccccc3)cc2)C(=O)N[C@@H](Cc2ccc(OCC(=O)O)cc2)C(=O)N[C@@H](CCCN)C(=O)N[C@H](CC(C)C)C(=O)N[C@@H](CCC)C(=O)N[C@@H](CC2CCCCC2)C(=O)N[C@@H](C(C)C)C(=O)N[C@@H](CCC(=O)O)C(=O)N1)C(=O)O` [Compound 2701] ({CH2CO}-[Nva]Y(Carboxymethyl)D[Phe(3-Me)]Y(Carboxymethyl)[Bip]Y(Carboxymethyl)[Orn][dL][Nva][Cha]VEC[Pra]-OH; thioether N-14), the half-inhibitory concentration (IC50) under setting [1] worked out at 163 nM.
